# Earlier results as cited in publication PMC6363533 (Biochemistry, 2018).
# Target: antithrombin
# Details: read-out: Kd of TNS binding to antithrombin; cited from earlier work
structure (smiles),measurement,value
"Cc1ccc(Nc2ccc3cc(S(=O)(=O)O)ccc3c2)cc1 [TNS, 2-p-toluidinylnaphthalene-6-sulfonate]",Kd,> 10 µM
